The values below come from patent publication US8563717B2, “Adenine derivatives” (GlaxoSmithKline LLC, priority 2008, dated 2013).

Holding throughout (type): cell-based
Test [1] relates to Interferon-α. In words: Induction of Interferon-α using cryopreserved human PBMCs. The conditions noted are these: PBMC, 24 h incubation, normalised to 1 uM resiquimod, read-out: mean pEC50 for induction of IFN-α (converted). The procedure, abridged:
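Cryopreserved healthy-donor PBMCs at 1×10^6 cells/ml in RPMI/10% FCS with 1000 units/ml IFN-gamma, exposed 24 h at 37 °C to 11-point two-fold compound dilutions. Supernatant IFN-α quantified by MSD electrochemiluminescence immunoassay; pEC50 from 4-parameter fit, normalised to 1 uM resiquimod and DMSO.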

Test [2] deals with Interferon-α. The experiment in a line: Induction of Interferon-α using fresh human PBMCs. To be noted: PBMC, 24 hr incubation, relative to 2 μM resiquimod control, read-out: mean pEC50 for induction of IFN-α (converted). The protocol:
(§1) Assay for the Induction of Interferon-α and TNF-α Using Fresh Human Peripheral Blood Mononuclear Cells (PBMCs)
(§2) Compounds were dissolved and serially diluted in DMSO to give 100× the required concentration range using a Biomek 2000. 1 ul of test compound was transferred into 96-well tissue culture plates using a Biomek FX. Each compound was assayed in duplicate for each donor. Each plate contained a dilution series of the TLR7/8 agonist resiquimod as standard and Column 11 contained 1 μl of 200 μM resiquimod (giving a 2 μM final concentration, used to define the approximate maximal response to resiquimod).
(§3) Blood samples from two human donors were collected into sodium heparin (10 U/ml). 25 ml volumes of whole blood were overlaid onto 15 mls Histopaque in Leucosep tubes which were centrifuged at 800 g for 20 min and the band at the plasma/histopaque interface carefully removed. The collected cells were centrifuged at 2500 rpm for 10 min. and the pellet resuspended in 10 ml of media (RPMI 1640 (Low endotoxin) supplemented with 10% v/v foetal calf serum (FCS, low endotoxin) 100 U/ml penicillin G, 100 μg/ml streptomycin, 10 mM L-glutamine and 1× non-essential amino acids). A 1:20 dilution of the cells was prepared using trypan blue & the cells counted using a haemocytometer. The PBMCs were diluted to give a final concentration of 2×10^6/ml and 100 ul of this cells suspension was added to wells containing 1 μl of diluted test compound.
(§4) The cell preparations were incubated for 24 hr. (37° C., 95% air, 5% CO2) after which a sample of the supernatant was removed using the Biomek FX and assayed for both IFN-α and TNF-α using the MSD (Mesoscale Discovery) electrochemiluminescence assay platform. The IFN-α assay was carried out similarly to that described above. The TNF-α assay was carried out as per kit instructions (Cat No K111BHB).
(§5) Cytokine released was expressed as a percentage of the 2 μM resiquimod control (column 11). This percentage was plotted against compound concentration and the pEC50 for the response determined by non-linear least squares curve fitting. For the IFN-α responses generally a 4 parameter logistic model was selected. For the TNF responses where a clear maximum response was obtained (i.e. a well defined plateau in the response was observed) then a 4 parameter model was generally used. If the upper asymptote of the curve wasn't well defined then the curve fitting was generally constrained to a maximal response of 100% (i.e., to the response to 2 μM resiquimod) or to the response of the highest concentration tested if this was greater than the resiquimod response. Some curves were bell shaped for one or both cytokines and the cytokine data on the down slope of the bell shaped response (i.e. concentrations above those giving the maximal response) were generally excluded from the fit, usually with the exception of the concentration immediately above the peak response. Curve fitting thus concentrated on the up slope of the dose response curve.

The subject of test [3] is TNF-α. The experiment in a line: Induction of TNF-α using fresh human PBMCs. To be noted: PBMC, 24 hr incubation, relative to 2 μM resiquimod control, read-out: mean pEC50 for induction of TNF-α (converted). The protocol: as §1, §2, §3, §4, §5

With `CCCCOc1nc(N)c2[nH]c(=O)n(CC3CCCN(CC)C3)c2n1` (stereo not drawn) [Example 1, 6-Amino-2-butoxy-9-[(1-ethyl-3-piperidinyl)methyl]-7,9-dihydro-8H-purin-8-one], the EC50 in test [1] is under 1580 nM; in test [2] it was under 100 nM; in test [3] it was over 1000 nM.
In the same order, the values of `CCCCOc1nc(N)c2[nH]c(=O)n(CC3CCN(CC)CC3)c2n1` [Example 7] are under 1580 nM, under 100 nM and over 1000 nM.
Turning to `CCCCOc1nc(N)c2[nH]c(=O)n(CCCC3CCCCN3CC(C)C)c2n1` (stereo not drawn) [Example 18, 6-Amino-2-(butyloxy)-9-{3-[1-(2-methylpropyl)-2-piperidinyl]propyl}-7,9-dihydro-8H-purin-8-one], the EC50 in test [1] was under 1580 nM; in test [2] it was under 0.316 nM; in test [3] it was over 31.6 nM.
With `CCCCOc1nc(N)c2[nH]c(=O)n(CC3CCCN(CCC)C3)c2n1` (stereo not drawn) [Example 23, 6-Amino-2-(butyloxy)-9-[(1-propyl-3-piperidinyl)methyl]-7,9-dihydro-8H-purin-8-one], the EC50 in test [1] is under 1580 nM; in test [2] it was under 100 nM; in test [3], over 1000 nM.
Take `CCCCOc1nc(N)c2[nH]c(=O)n(CC3CCCN(C(C)C)C3)c2n1` (stereo not drawn) [Example 24, 6-Amino-2-(butyloxy)-9-{[1-(1-methylethyl)-3-piperidinyl]methyl}-7,9-dihydro-8H-purin-8-one]: the EC50 in test [1] is under 1580 nM; in test [2] it was under 100 nM; in test [3], over 1000 nM.
In the same order, the values of `CCCCOc1nc(N)c2[nH]c(=O)n(CCC3CCCNC3)c2n1` (stereo not drawn) [Example 29, 6-amino-2-(butyloxy)-9-[2-(3-piperidinyl)ethyl]-7,9-dihydro-8H-purin-8-one] are under 1580 nM, under 100 nM and over 1000 nM.
As for `CCCCOc1nc(N)c2[nH]c(=O)n(CCC3CCCN(CC)C3)c2n1` (stereo not drawn) [Example 30, 6-Amino-2-(butyloxy)-9-[2-(1-ethyl-3-piperidinyl)ethyl]-7,9-dihydro-8H-purin-8-one], the EC50 in test [1] was under 1580 nM; in test [2] it was under 10 nM; in test [3], over 1000 nM.
Turning to `CCCCOc1nc(N)c2[nH]c(=O)n(CCC3CCCN(C(C)C)C3)c2n1` (stereo not drawn) [Example 32, 6-Amino-2-(butyloxy)-9-{2-[1-(1-methylethyl)-3-piperidinyl]ethyl}-7,9-dihydro-8H-purin-8-one], the values for the EC50 in test [1], in test [2] and in test [3] were under 1580 nM, under 1 nM and over 1000 nM, respectively.
In the same order, the values of `CCCCOc1nc(N)c2[nH]c(=O)n(CCC3CCCN(C4CCCCC4)C3)c2n1` (stereo not drawn) [Example 38, 6-Amino-2-(butyloxy)-9-[2-(1-cyclohexyl-3-piperidinyl)ethyl]-7,9-dihydro-8H-purin-8-one] are under 1580 nM, under 1 nM and over 1000 nM.
Turning to `CCC[C@H](C)Oc1nc(N)c2[nH]c(=O)n(CCC3CCCN(CC)C3)c2n1` (stereo partly drawn) [Example 41, 6-Amino-9-[2-(1-ethyl-3-piperidinyl)ethyl]-2-{[(1S)-1-methylbutyl]oxy}-7,9-dihydro-8H-purin-8-one], the EC50 in test [1] is under 1580 nM; in test [2], under 0.316 nM; in test [3] it was over 31.6 nM.
Turning to `CCC[C@H](C)Oc1nc(N)c2[nH]c(=O)n(CCC3CCCN(C(C)C)C3)c2n1` (stereo partly drawn) [Example 42, 6-Amino-2-{[(1S)-1-methylbutyl]oxy}-9-{2-[1-(1-methylethyl)-3-piperidinyl]ethyl}-7,9-dihydro-8H-purin-8-one], the EC50 was under 1580 nM in test [1], under 0.316 nM in test [2] and over 31.6 nM in test [3].
`CCC[C@H](C)Oc1nc(N)c2[nH]c(=O)n(CCCCC3CCCN(CC)C3)c2n1` (stereo partly drawn) [Example 66, 6-Amino-9-[4-(1-ethyl-3-piperidinyl)butyl]-2-{[(1S)-1-methylbutyl]oxy}-7,9-dihydro-8H-purin-8-one]: the EC50 in test [1] is under 1580 nM; in test [2], under 0.316 nM; in test [3], over 31.6 nM.
In the case of `CCCCOc1nc(N)c2[nH]c(=O)n(CCCCCC3CCCN(C(C)C)C3)c2n1` (stereo not drawn) [Example 69, 6-Amino-2-(butyloxy)-9-{5-[1-(1-methylethyl)-3-piperidinyl]pentyl}-7,9-dihydro-8H-purin-8-one], the EC50 in test [1] was under 1580 nM; in test [2] it was under 10 nM; in test [3], over 1000 nM.
As to `CCCCOc1nc(N)c2[nH]c(=O)n(CCC3CCN(C(C)C)CC3)c2n1` [Example 81, 6-Amino-2-(butyloxy)-9-{2-[1-(1-methylethyl)-4-piperidinyl]ethyl}-7,9-dihydro-8H-purin-8-one], the figures for the EC50 in test [1], in test [2] and in test [3] were under 1580 nM, under 100 nM and over 1000 nM, respectively.
In the case of `CCC[C@H](C)Oc1nc(N)c2[nH]c(=O)n(CCC3CCN(CC)CC3)c2n1` [Example 91, 6-Amino-9-[2-(1-ethyl-4-piperidinyl)ethyl]-2-{[(1S)-1-methylbutyl]oxy}-7,9-dihydro-8H-purin-8-one], the figures for the EC50 in test [1], in test [2] and in test [3] were under 1580 nM, under 0.316 nM and over 31.6 nM, respectively.
In the case of `CCCCOc1nc(N)c2[nH]c(=O)n(CCCC3CCN(CCC)CC3)c2n1` [Example 94, 6-Amino-2-(butyloxy)-9-[3-(1-propyl-4-piperidinyl)propyl]-7,9-dihydro-8H-purin-8-one], the EC50 in test [1] was under 1580 nM; in test [2] it was under 1 nM; in test [3], over 1000 nM.
In the case of `CCCCOc1nc(N)c2[nH]c(=O)n(CCCC3CCN(C(C)C)CC3)c2n1` [Example 95, 6-Amino-2-(butyloxy)-9-{3-[1-(1-methylethyl)-4-piperidinyl]propyl}-7,9-dihydro-8H-purin-8-one], the EC50 was under 1580 nM in test [1], under 10 nM in test [2] and over 1000 nM in test [3].
In the same order, the values of `CCCCOc1nc(N)c2[nH]c(=O)n(CCCC3CCN(CCCC)CC3)c2n1` [Example 96, 6-Amino-2-(butyloxy)-9-[3-(1-butyl-4-piperidinyl)propyl]-7,9-dihydro-8H-purin-8-one] are under 1580 nM, under 1 nM and over 1000 nM.
Take `CCCCOc1nc(N)c2[nH]c(=O)n(CCCC3CCN(C4CCCCC4)CC3)c2n1` [Example 102, 6-Amino-2-(butyloxy)-9-[3-(1-cyclohexyl-4-piperidinyl)propyl]-7,9-dihydro-8H-purin-8-one]: the results for the EC50 in test [1], in test [2] and in test [3] were under 1580 nM, under 10 nM and over 1000 nM, respectively.
Take `CCC[C@H](C)Oc1nc(N)c2[nH]c(=O)n(CCCC3CCNCC3)c2n1` [Example 104, 6-Amino-2-{[(1S)-1-methylbutyl]oxy}-9-[3-(4-piperidinyl)propyl]-7,9-dihydro-8H-purin-8-one]: the results for the EC50 in test [1], in test [2] and in test [3] were under 1580 nM, under 0.316 nM and over 31.6 nM, respectively.
`CCC[C@H](C)Oc1nc(N)c2[nH]c(=O)n(CCCC3CCN(C(C)C)CC3)c2n1` [Example 106, 6-Amino-2-{[(1S)-1-methylbutyl]oxy}-9-{3-[1-(1-methylethyl)-4-piperidinyl]propyl}-7,9-dihydro-8H-purin-8-one]: the EC50 is under 1580 nM in test [1], under 0.316 nM in test [2] and over 31.6 nM in test [3].
On to `CCCCOc1nc(N)c2[nH]c(=O)n(CCCCC3CCN(CCC)CC3)c2n1` [Example 108, 6-Amino-2-(butyloxy)-9-[4-(1-propyl-4-piperidinyl)butyl]-7,9-dihydro-8H-purin-8-one], for which the EC50 in test [1] is under 1580 nM; in test [2], under 1 nM; in test [3], over 1000 nM.
In the same order, the values of `CCC[C@H](C)Oc1nc(N)c2[nH]c(=O)n(CCCCC3CCN(CC)CC3)c2n1` [Example 119, 6-Amino-9-[4-(1-ethyl-4-piperidinyl)butyl]-2-{[(1S)-1-methylbutyl]oxy}-7,9-dihydro-8H-purin-8-one] are under 1580 nM, under 0.316 nM and over 31.6 nM.
